ChEMBL document CHEMBL1154843, “Nakijiquinones J--R, sesquiterpenoid quinones with an amine residue from okinawan marine sponges” (J Nat Prod, 2010)
Activity calls are given as the source filed them. The calls are words filed in the database; no cut-off is given here.

Assays:
[1] = biological target: Receptor tyrosine-protein kinase erbB-2 (Homo sapiens) (UniProt P04626); assay: Inhibition of HER2 at 1 mM
[2] = biological target: Epidermal growth factor receptor (Homo sapiens) (UniProt P00533); assay: Inhibition of EGFR at 1 mM
Epidermal growth factor receptor (Homo sapiens), sequence (P00533 whole entry): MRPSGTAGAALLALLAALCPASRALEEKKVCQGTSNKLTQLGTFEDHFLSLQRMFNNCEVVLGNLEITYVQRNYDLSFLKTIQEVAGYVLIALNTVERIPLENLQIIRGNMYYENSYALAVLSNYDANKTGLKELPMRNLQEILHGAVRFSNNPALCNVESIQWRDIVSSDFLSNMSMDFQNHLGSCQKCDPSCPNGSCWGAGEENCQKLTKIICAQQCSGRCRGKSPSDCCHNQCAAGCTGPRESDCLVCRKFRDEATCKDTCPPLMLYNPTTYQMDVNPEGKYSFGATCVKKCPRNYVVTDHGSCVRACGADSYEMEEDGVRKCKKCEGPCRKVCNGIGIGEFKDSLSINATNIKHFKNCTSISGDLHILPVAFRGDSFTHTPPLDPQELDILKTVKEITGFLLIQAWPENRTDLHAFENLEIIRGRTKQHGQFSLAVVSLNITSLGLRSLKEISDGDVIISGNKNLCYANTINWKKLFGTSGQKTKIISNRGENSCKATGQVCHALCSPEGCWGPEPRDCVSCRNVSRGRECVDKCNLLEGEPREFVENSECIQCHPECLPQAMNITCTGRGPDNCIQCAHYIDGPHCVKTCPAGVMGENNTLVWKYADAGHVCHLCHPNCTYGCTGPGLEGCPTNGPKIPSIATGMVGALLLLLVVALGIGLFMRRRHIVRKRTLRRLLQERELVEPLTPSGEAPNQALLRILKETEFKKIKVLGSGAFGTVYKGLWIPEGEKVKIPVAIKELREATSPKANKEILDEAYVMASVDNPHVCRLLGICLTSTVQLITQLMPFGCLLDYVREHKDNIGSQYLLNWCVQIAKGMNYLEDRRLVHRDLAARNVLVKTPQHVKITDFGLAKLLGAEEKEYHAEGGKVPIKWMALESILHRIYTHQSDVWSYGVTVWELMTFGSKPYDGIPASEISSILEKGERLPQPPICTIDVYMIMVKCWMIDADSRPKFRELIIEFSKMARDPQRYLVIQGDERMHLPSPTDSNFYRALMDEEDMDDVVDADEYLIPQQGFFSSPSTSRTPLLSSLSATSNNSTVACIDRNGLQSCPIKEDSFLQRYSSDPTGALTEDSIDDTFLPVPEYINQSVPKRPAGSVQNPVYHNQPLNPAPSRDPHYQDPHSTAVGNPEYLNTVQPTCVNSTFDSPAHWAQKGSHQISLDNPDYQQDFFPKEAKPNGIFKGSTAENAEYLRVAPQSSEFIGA

Receptor tyrosine-protein kinase erbB-2 (Homo sapiens), sequence (P04626 whole entry): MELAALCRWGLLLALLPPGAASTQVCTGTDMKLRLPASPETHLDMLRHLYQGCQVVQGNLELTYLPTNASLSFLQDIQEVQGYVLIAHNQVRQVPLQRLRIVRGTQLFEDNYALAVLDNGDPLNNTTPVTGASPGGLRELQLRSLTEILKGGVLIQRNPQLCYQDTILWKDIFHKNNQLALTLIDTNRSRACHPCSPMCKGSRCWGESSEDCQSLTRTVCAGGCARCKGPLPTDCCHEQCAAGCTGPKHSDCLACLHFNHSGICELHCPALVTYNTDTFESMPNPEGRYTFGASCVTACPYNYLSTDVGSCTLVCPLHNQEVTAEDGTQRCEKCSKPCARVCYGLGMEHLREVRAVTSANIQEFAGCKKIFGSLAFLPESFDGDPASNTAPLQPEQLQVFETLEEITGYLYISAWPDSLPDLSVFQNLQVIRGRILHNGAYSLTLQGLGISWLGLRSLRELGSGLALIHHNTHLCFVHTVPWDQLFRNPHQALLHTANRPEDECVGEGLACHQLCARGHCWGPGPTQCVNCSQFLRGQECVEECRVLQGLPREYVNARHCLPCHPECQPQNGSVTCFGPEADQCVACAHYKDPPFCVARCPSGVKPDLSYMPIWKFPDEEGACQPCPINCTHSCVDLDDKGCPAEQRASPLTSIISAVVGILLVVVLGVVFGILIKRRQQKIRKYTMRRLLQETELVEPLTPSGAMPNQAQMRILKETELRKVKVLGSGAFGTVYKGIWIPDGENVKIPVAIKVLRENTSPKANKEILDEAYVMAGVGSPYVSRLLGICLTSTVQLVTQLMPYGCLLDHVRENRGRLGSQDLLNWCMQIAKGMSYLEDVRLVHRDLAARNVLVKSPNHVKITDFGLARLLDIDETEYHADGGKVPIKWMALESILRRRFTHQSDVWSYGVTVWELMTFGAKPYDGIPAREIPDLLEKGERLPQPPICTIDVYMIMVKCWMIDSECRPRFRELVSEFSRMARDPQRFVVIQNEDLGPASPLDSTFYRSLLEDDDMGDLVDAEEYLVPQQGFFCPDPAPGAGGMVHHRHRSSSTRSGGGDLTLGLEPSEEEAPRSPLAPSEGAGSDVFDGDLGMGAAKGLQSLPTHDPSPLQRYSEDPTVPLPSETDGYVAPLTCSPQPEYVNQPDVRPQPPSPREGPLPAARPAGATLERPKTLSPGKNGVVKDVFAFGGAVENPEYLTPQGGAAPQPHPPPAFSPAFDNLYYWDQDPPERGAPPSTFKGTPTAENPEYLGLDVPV

| Compound | inhibition [1] | inhibition [2] |
| --- | --- | --- |
| C[C@H]1CC=C2[C@@H](CCCC2(C)C)[C@]1(C)CC1=C(O)C(=O)C=C(NCCc2ccccc2)C1=O | inactive | 76% |
| CC[C@H](C)CNC1=CC(=O)C(O)=C(C[C@@]2(C)[C@@H]3CCCC(C)(C)C3=CC[C@@H]2C)C1=O | inactive | inactive |
| CC1=CCC[C@H]2[C@](C)(CC3=C(O)C(=O)C=C(NCCC(C)C)C3=O)[C@@H](C)CC[C@]12C | 66% | inactive |
| CC1=CCC[C@H]2[C@](C)(CC3=C(O)C(=O)C=C(NCCc4ccccc4)C3=O)[C@@H](C)CC[C@]12C | inactive | inactive |
| CC1=CCC[C@H]2[C@](C)(CC3=C(O)C(=O)C=C(NCC(C)C)C3=O)[C@@H](C)CC[C@]12C | 59% | inactive |

Results, then the compound that gave them:

| inhibition [1] | inhibition [2] | Compound |
| --- | --- | --- |
| inactive | inactive | CC[C@H](C)CNC1=CC(=O)C(O)=C(C[C@]2(C)[C@@H](C)CC[C@]3(C)C(C)=CCC[C@@H]23)C1=O |
| 52% | > 99% | CC1=CCC[C@H]2[C@](C)(CC3=C(O)C(=O)C=C(NCCS(=O)(=O)O)C3=O)[C@@H](C)CC[C@]12C |
| inactive | inactive | CC(C)CCNC1=CC(=O)C(O)=C(C[C@@]2(C)[C@@H]3CCCC(C)(C)C3=CC[C@@H]2C)C1=O |
| inactive | inactive | C=C1CCC[C@H]2[C@](C)(CC3=C(O)C(=O)C=C(NC[C@@H](C)CC)C3=O)[C@@H](C)CC[C@]12C |
